Assay results taken from article PMC4051503 (2014).

Tested on: d(AAAATTTT)2 (DNA, duplex) AAAATTTT
Experiment: X-ray crystallography (2.1 Å)
Details: 8 mM MnCl2; 40 mM sodium cacodylate pH 6.5, 0.5 mM spermine, 5% MPD, 15 °C; 0.25 mM duplex, 0.75 mM CD27

binding: yes
SMILES: c1cc(Nc2ccc(NC3=NCCN3)cc2)ccc1NC1=NCCN1
